{"source": "patent US20070135470A1", "about": "“Utilization of vinpocetine to avoid complications in particular those associated to hearing which occur with epilepsy, and treatment thereof” (UNIVERSIDAD NACIONAL AUTONOMA DE MEXICO, priority 2003, published 2007)", "key": {"humans": {"tested_on": "humans", "settings": "doses as high as 60 mg/day; Hindmarch et al. 1991; cited from earlier work"}, "[1]": {"tested_on": "hearing loss induced by 4-AP in guinea pigs", "assay": "ABR (auditory) threshold in 4-AP-induced epilepsy", "type": "in vivo, guinea pig", "procedure": "(§1) Experiments were performed in pigmented adult male guinea pigs initially weighing 349±38 g. ABRs recordings were used to evaluate the hearing status of each animal and EEG recordings to evaluate changes in cortical excitability. The ABR and EEG recordings were obtained following a method that we have previously reported (Nekrassov and Sitges, 2003). The Institutional Animal Use and Care Committee approved all experimental procedures.\n(§2) Three types of recordings were performed in the anaesthetized animals, namely the ABR recordings elicited by a stimulus of high intensity (100 dB), the ABR recordings for determination of the auditory threshold and the EEG recordings.\n(§3) Determination of ABR thresholds. ABR recordings elicited by stimuli of progressively lower intensity (in dB) were used for determining the hearing threshold. Threshold is defined as the lowest stimulus intensity (in dB) at which the P3 wave of the ABR could still be recorded in three consecutive trials.\n(§4) Student's t-test was used for the evaluation of the differences between results obtained before and at the specified times after the injection of the convulsing agents. The criterion for statistical significance for all measures was P≦0.05. All data are expressed as means±standard error of the mean. In figures and tables the symbol * is used for indicating statistic significant differences.\n(§5) Five guinea pigs were entered into the study. One hour after injecting guinea pigs with vehicle (acidified saline used to dissolve vinpocetine) the animals were anaesthetized and a first set of ABR and EEG recordings was taken before the injection (i.p) of the convulsing agent, 4-AP. The animals were injected with 4-AP (2 mg/kg) and about 20 min after injecting 4-AP (ictal period) the EEG recording was taken. Then the other series of ABR and EEG recordings were taken at specific times within the post-ictal period. After two weeks the same series of recordings were repeated but instead vehicle the animals were injected with vinpocetine (2 mg/kg) 1 hour before the injection of 4-AP."}, "[2]": {"tested_on": "epileptic cortical activity induced by PTZ in guinea pigs", "assay": "EEG recordings of cortical activity in PTZ-induced epilepsy", "type": "in vivo, guinea pig", "settings": "ictal (about 2 min) and post-ictal (10, 20, 30, 50 min) periods; vinpocetine 2 mg/kg 4 h before PTZ; FIGS. 3, 4", "procedure": "as §1, §2\n(§6) Eight male guinea pigs were entered into this study. PTZ was dissolved in saline and vinpocetine in a saline acidified (with HCl) adjusted to pH 4 (with NaOH). Four hours after injecting guinea pigs with vehicle (acidified saline used to dissolve vinpocetine) the animals were anaesthetized and a first set of ABR and EEG recordings was taken before the injection (i.p) of the convulsing agent, PTZ. The animals were injected with PTZ (100 mg/kg) and about 2 min after injecting PTZ (ictal period) the EEG recording was taken. Then the other series of ABR and EEG recordings were taken at specific times within the post-ictal period. After two weeks the same series of recordings was taken but instead vehicle the animals were injected with vinpocetine (2 mg/kg) 4 hours before the injection of PTZ.\nVinpocetine inhibits all the changes induced by PTZ on the EEG. […] This dramatic change on the cortical activity induced by PTZ in the anaesthetized animals during convulsions is followed by a typical pattern of cortical activity characterized by rhythmic spike bursts of high amplitude. The duration time of this typical pattern of cortical activity, that is not accompanied by convulsions is referred as the post-ictal period."}, "[3]": {"tested_on": "guinea pig treated with amikacin", "settings": "high dose of amikacin; Nekrassov and Sitges 2000; cited from earlier work"}, "[4]": {"tested_on": "hearing loss induced by PTZ in guinea pigs", "assay": "ABR (auditory) threshold in PTZ-induced epilepsy", "type": "in vivo, guinea pig", "procedure": "as §1, §2, §3, §4, §6"}, "[5]": {"tested_on": "epileptic cortical activity induced by 4-AP in guinea pigs", "assay": "EEG recordings of cortical activity in 4-AP-induced epilepsy", "type": "in vivo, guinea pig", "settings": "ictal (about 20 min) and post-ictal (30, 60, 80 min) periods; vinpocetine 2 mg/kg 1 h before 4-AP; FIGS. 6, 7", "procedure": "as §1, §2, §5\nVinpocetine inhibits all the changes induced by 4-AP on the EEG. […] This change on the cortical activity elicited by 4-AP for the ictal period is followed by the post-ictal period characterized by isolated spikes of higher amplitude that appear on the EEG about one hour after the injection of 4-AP. […] The top traces of FIG. 6 show the characteristic EEG recordings taken before the injection of 4-AP in the animals pre-injected with vehicle (a) and in the animals pre-injected with vinpocetine (b). The changes induced by 4-AP on for the ictal period are shown in the second trace on FIG. 6a. In the vinpocetine treated animals 4-AP was unable to induce the ictal activity (second trace on FIG. 6b)."}, "presynaptic Na+ channels": {"tested_on": "presynaptic Na+ channels", "settings": "brain isolated nerve endings; Sitges and Nekrassov 1999; Trejo et al. 2001; cited from earlier work"}, "[6]": {"tested_on": "epilepsy induced by 4-AP in guinea pigs", "assay": "ABR wave parameters (amplitude, latency) in 4-AP-induced epilepsy", "type": "in vivo, guinea pig", "settings": "100 dB", "procedure": "as §1, §2\nDetermination of ABR wave parameters. The latency and amplitude of each wave component of the ABR elicited by a stimulus of 100 dB with pure tone frequencies of 4 and 8 kHz was measured in all the ABR recordings obtained under the different experimental conditions at the specified times. The latency of each ABR wave (in ms) refers to the time interval between the onset of the auditory stimulus and the positive peak of the wave. The onset of the stimulus is indicated by the vertical arrow at the bottom of the recordings on FIG. 1. The peak amplitude (in μV) of each wave of the ABR is the difference between the positive peak of the wave and the reference baseline (trace between the stimulus and the appearance of the first ABR wave on FIG. 1).\nas §4, §5"}, "[7]": {"settings": "4 kHz, 30 min after 4-AP 2 mg/kg i.p., vinpocetine 2 mg/kg or vehicle 1 h before 4-AP"}, "[8]": {"settings": "4 kHz, 60 min after 4-AP 2 mg/kg i.p., vinpocetine 2 mg/kg or vehicle 1 h before 4-AP"}, "[9]": {"settings": "8 kHz, 30 min after 4-AP 2 mg/kg i.p., vinpocetine 2 mg/kg or vehicle 1 h before 4-AP"}, "[10]": {"settings": "8 kHz, 60 min after 4-AP 2 mg/kg i.p., vinpocetine 2 mg/kg or vehicle 1 h before 4-AP"}}}
{"smiles": "CCOC(=O)C1=C[C@]2(CC)CCCN3CCc4c(n1c1ccccc41)[C@@H]32", "note": "[Vinpocetine, ethyl apovincamine-22-oate]", "values": [{"measurement": "tolerability in humans", "setting": "humans", "value": "well tolerated and without contraindications"}, {"measurement": "auditory threshold", "setting": "[1]; [7]", "value": "11.3 ± 1.3", "unit": "dB"}, {"measurement": "auditory threshold", "setting": "[1]; [8]", "value": "11.3 ± 1.3", "unit": "dB"}, {"measurement": "auditory threshold", "setting": "[1]; 4 kHz, before 4-AP injection, 1 h after vinpocetine 2 mg/kg", "value": "13.8 ± 1.3", "unit": "dB"}, {"measurement": "auditory threshold", "setting": "[1]; [9]", "value": "−1.3 ± 2.4", "unit": "dB"}, {"measurement": "auditory threshold", "setting": "[1]; [10]", "value": "0.0 ± 3.5", "unit": "dB"}, {"measurement": "auditory threshold", "setting": "[1]; 8 kHz, before 4-AP injection, 1 h after vinpocetine 2 mg/kg", "value": "2.5 ± 1.4", "unit": "dB"}, {"measurement": "effect on changes on the cortical activity (EEG) induced by PTZ", "setting": "[2]", "value": "completely inhibits"}, {"measurement": "protective action over changes in ABR waves, hearing loss and mortality induced by amikacin", "setting": "[3]", "value": "long term (more than half a year) protective action"}, {"measurement": "auditory threshold", "setting": "[4]; 4 kHz, 30 min after PTZ 100 mg/kg i.p., vinpocetine 2 mg/kg or vehicle 4 h before PTZ", "value": "18 ± 1.2", "unit": "dB"}, {"measurement": "auditory threshold", "setting": "[4]; 4 kHz, 50 min after PTZ 100 mg/kg i.p., vinpocetine 2 mg/kg or vehicle 4 h before PTZ", "value": "18 ± 1.2", "unit": "dB"}, {"measurement": "auditory threshold", "setting": "[4]; 4 kHz, before PTZ injection, 4 h after vinpocetine 2 mg/kg, mean±SEM, 8 animals", "value": "20 ± 1.6", "unit": "dB"}, {"measurement": "auditory threshold", "setting": "[4]; 8 kHz, 30 min after PTZ 100 mg/kg i.p., vinpocetine 2 mg/kg or vehicle 4 h before PTZ", "value": "6.0 ± 1.0", "unit": "dB"}, {"measurement": "auditory threshold", "setting": "[4]; 8 kHz, 50 min after PTZ 100 mg/kg i.p., vinpocetine 2 mg/kg or vehicle 4 h before PTZ", "value": "6.0 ± 1.0", "unit": "dB"}, {"measurement": "auditory threshold", "setting": "[4]; 8 kHz, before PTZ injection, 4 h after vinpocetine 2 mg/kg, mean±SEM, 8 animals", "value": "6.0 ± 1.0", "unit": "dB"}, {"measurement": "effect on changes on the cortical activity (EEG) induced by 4-AP", "setting": "[5]", "value": "completely prevents"}, {"measurement": "neurotransmitter release induced by an increase in presynaptic Na+ channels permeability", "setting": "presynaptic Na+ channels", "value": "selectively inhibits"}, {"measurement": "latency of the P4 wave of the ABR", "setting": "[6]; [7]", "value": "3.37 ± 0.06", "unit": "ms"}, {"measurement": "latency of the P4 wave of the ABR", "setting": "[6]; [8]", "value": "3.54 ± 0.11", "unit": "ms"}, {"measurement": "latency of the P4 wave of the ABR", "setting": "[6]; 4 kHz, 80 min after 4-AP 2 mg/kg i.p., vinpocetine 2 mg/kg or vehicle 1 h before 4-AP", "value": "3.56 ± 0.04", "unit": "ms"}, {"measurement": "latency of the P4 wave of the ABR", "setting": "[6]; 4 kHz, 100 min after 4-AP 2 mg/kg i.p., vinpocetine 2 mg/kg or vehicle 1 h before 4-AP", "value": "3.43 ± 0.09", "unit": "ms"}, {"measurement": "latency of the P4 wave of the ABR", "setting": "[6]; 4 kHz, before 4-AP injection, 1 h after vinpocetine 2 mg/kg, 5 animals", "value": "3.45 ± 0.06", "unit": "ms"}, {"measurement": "latency of the P4 wave of the ABR", "setting": "[6]; [9]", "value": "3.55 ± 0.07", "unit": "ms"}, {"measurement": "latency of the P4 wave of the ABR", "setting": "[6]; [10]", "value": "3.45 ± 0.08", "unit": "ms"}, {"measurement": "latency of the P4 wave of the ABR", "setting": "[6]; 8 kHz, 80 min after 4-AP 2 mg/kg i.p., vinpocetine 2 mg/kg or vehicle 1 h before 4-AP", "value": "3.36 ± 0.05", "unit": "ms"}, {"measurement": "latency of the P4 wave of the ABR", "setting": "[6]; 8 kHz, 100 min after 4-AP 2 mg/kg i.p., vinpocetine 2 mg/kg or vehicle 1 h before 4-AP", "value": "3.35 ± 0.07", "unit": "ms"}, {"measurement": "latency of the P4 wave of the ABR", "setting": "[6]; 8 kHz, before 4-AP injection, 1 h after vinpocetine 2 mg/kg, 5 animals", "value": "3.48 ± 0.04", "unit": "ms"}, {"measurement": "progressive increase in the amplitude of the P3 wave of the ABR produced by 4-AP", "setting": "[6]; 8 kHz, vinpocetine 2 mg/kg 1 h before 4-AP, FIG. 5a,b", "value": "eliminated"}, {"measurement": "reduction in P4 amplitude produced by 4-AP", "setting": "[6]; 8 kHz, vinpocetine 2 mg/kg 1 h before 4-AP, FIG. 5c,d", "value": "markedly reduced"}]}
